Source: ChEMBL document CHEMBL1201862, “PubChem BioAssay data set” (2004)
One block for each compound: values may come before it. Active and inactive are the calls of the source.

Tests used:
[1] = molecular target: 26S proteasome non-ATPase regulatory subunit 14 (Homo sapiens, UniProt O00487); assay: inhibition of proteasome subunit RPN11 – biochemical, fluorescence polarization, uHTS hits, confirmation (AID 602368); format: functional
[2] = molecular target: 72 kDa type IV collagenase (Homo sapiens, UniProt P08253); assay: Dose Response validation of uHTS RPN11 inhibitor hits using a MMP-2 Fluorescence assay.; format: functional
Prothrombin = Prothrombin (Bos taurus, UniProt P00735); assay: thrombin protease inhibitors – biochemical, fluorescence polarization, uHTS hits, dose response (AID 602369); format: functional
[3] = loss of viability in HepG2 cells – cell-based, CellTiter-Glo, cherry-picked, cytotoxicity control for Shn3 inhibitor project, dose response (AID 624134); format: functional
Melanocortin receptor 4 = Melanocortin receptor 4 (Homo sapiens, UniProt P32245); format: functional, cell-based;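 note: Cell-based assay with luminescence read-out, confirmatory dose-response testing for agonist activity of biased ligands at MC4R; human U2OS cells with tagged receptor and beta-arrestin; potency of agonists that increase receptor coupling to beta-arrestin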
[4] = non-specific 3'UTR reporter inhibition in Clone20-Shn3RL – cell-based, Renilla luciferase, cherry-picked, counter-screen for Shn3 inhibitor project, dose response (AID 624133); format: functional
[5] = NIH3T3 cell viability loss – ATP luminescence, mouse fibroblasts, counter-screen, dose response (AID 2010); format: functional, cell-based;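 note: cells exposed to compound for about 90 hours before reading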
[6] = Trypanosoma cruzi growth suppression in host cells – NIH3T3 host cells, beta-gal luminescence, confirmation (AID 2044); format: functional, cell-based;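 note: intracellular parasites grown in NIH/3T3 mouse fibroblasts as host cells; luminescent beta-galactosidase reporter signal from transgenic T. cruzi replicating inside host cells; inhibitors lower the luminescence signal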
[7] = reduction of Shn3 3'UTR-driven luciferase in osteoblasts – cell-based, Clone20 osteoblasts, firefly luciferase, cherry-picked, dose response (AID 624132); format: functional;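 note: firefly luciferase luminescence from reporter carrying the Shn3 3'UTR in osteoblasts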
[8] = molecular target: T1, Polyadenylate-binding protein 1 (Homo sapiens, UniProt P11940); assay: MLLE binding blockers, Cy5 peptide tracer – biochemical, fluorescence polarization, Cy5-PAM2 peptide, secondary, miRNA deadenylation inhibitor project, dose response (AID 602260); format: functional; conditions: read-out: IC50_Mean
[9] = molecular target: T1, Polyadenylate-binding protein 1; assay: MLLE domain peptide-binding blockers, IC50 – biochemical, fluorescence polarization, FITC-PAM2 peptide, dose response (AID 602259); format: functional; conditions: read-out: IC50_Mean
[10] = molecular target: Dual specificity protein phosphatase 3 (Homo sapiens, UniProt P51452); assay: VHR phosphatase inhibition, dose response, selectivity assay for STEP inhibitor project, biochemical (AID 602374); format: functional; conditions: read-out: IC50_Mean
[11] = molecular target: Tyrosine-protein phosphatase non-receptor type 5 (Homo sapiens, UniProt P54829); assay: PTPN5 enzyme inhibition – biochemical, fluorescence intensity, uHTS hits, confirmation (AID 602372); format: functional; conditions: read-out: IC50_Mean
[12] = molecular target: Tyrosine-protein phosphatase non-receptor type 11 (Homo sapiens, UniProt Q06124); assay: PTPN11 enzyme inhibitors – biochemical, selectivity assay for STEP inhibitor project, dose response (AID 602367); format: functional; conditions: read-out: IC50_Mean
[13] = molecular target: T2, Carboxy-terminal domain RNA polymerase II polypeptide A small phosphatase 1 (Homo sapiens, UniProt Q9GZU7); assay: CTDSP1 inhibitors, concentration-response, biochemical, absorbance readout, ultra-high-throughput screen actives (AID 540297); format: functional
T2 sequence (Q9GZU7 whole entry): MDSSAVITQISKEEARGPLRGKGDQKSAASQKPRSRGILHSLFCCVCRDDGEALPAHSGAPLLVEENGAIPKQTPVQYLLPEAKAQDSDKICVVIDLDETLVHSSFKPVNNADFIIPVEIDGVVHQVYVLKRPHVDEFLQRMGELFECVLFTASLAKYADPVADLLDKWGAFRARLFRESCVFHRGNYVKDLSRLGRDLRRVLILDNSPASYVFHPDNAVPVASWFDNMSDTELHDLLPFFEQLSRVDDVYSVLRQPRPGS

Caspase-3 = molecular target: T3, Caspase-3 (Homo sapiens, UniProt P42574); assay: SAR Analysis of small molecule inhibitors of Sentrin-specific proteases (SENPs) using a Caspase-3 Selectivity assay. [Related pubchem assays (depositor defined):AID2540, AID2599, AID434973, AID489001]; format: functional
T3 sequence (P42574 whole entry): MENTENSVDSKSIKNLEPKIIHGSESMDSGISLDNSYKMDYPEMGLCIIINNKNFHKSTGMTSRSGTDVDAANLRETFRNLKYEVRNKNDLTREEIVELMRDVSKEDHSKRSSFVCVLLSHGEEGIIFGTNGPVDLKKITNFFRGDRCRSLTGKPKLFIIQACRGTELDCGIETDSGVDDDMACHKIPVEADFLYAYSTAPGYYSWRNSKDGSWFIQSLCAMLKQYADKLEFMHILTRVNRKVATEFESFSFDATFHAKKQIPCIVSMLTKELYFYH

[14] = molecular target: T4, Sentrin-specific protease 6 (Homo sapiens, UniProt Q9GZR1); assay: SAR Analysis of small molecule inhibitors of Sentrin-specific protease 6 (SENP6) using a Luminescent assay. [Related pubchem assays (depositor defined):AID2582, AID2599]; format: functional
T4 sequence (Q9GZR1 whole entry): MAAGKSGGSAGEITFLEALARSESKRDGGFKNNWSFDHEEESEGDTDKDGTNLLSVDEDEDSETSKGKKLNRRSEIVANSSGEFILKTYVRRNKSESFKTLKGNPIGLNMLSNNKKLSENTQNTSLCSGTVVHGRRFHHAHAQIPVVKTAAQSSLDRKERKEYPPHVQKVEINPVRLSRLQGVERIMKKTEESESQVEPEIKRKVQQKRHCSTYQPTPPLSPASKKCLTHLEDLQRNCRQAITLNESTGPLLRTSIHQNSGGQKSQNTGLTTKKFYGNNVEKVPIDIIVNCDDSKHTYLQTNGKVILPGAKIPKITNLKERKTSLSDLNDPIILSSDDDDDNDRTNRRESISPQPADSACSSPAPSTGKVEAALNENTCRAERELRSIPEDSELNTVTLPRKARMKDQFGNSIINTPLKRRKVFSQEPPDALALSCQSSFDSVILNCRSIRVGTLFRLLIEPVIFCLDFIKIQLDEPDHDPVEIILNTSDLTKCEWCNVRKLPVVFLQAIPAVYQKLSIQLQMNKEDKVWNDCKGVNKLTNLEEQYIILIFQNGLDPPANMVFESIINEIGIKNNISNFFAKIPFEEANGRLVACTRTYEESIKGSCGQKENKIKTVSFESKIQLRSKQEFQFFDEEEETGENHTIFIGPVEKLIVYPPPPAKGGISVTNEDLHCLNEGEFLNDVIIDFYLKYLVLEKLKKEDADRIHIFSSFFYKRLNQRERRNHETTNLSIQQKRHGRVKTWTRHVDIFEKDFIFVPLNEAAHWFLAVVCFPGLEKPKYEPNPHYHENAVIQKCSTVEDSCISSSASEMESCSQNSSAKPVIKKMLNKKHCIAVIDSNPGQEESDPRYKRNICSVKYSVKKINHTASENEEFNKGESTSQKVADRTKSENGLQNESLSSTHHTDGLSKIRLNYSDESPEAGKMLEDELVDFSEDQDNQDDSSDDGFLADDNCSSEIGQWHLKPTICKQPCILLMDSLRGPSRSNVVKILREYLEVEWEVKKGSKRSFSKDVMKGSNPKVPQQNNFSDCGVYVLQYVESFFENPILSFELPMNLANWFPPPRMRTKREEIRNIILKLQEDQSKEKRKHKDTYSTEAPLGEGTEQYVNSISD

[15] = molecular target: T5, Sentrin-specific protease 7 (Homo sapiens, UniProt Q9BQF6); assay: inhibition of human SENP7 cleavage activity – biochemical, luminescence, SAR follow-up (AID 504497); format: functional
T5 sequence (Q9BQF6 whole entry): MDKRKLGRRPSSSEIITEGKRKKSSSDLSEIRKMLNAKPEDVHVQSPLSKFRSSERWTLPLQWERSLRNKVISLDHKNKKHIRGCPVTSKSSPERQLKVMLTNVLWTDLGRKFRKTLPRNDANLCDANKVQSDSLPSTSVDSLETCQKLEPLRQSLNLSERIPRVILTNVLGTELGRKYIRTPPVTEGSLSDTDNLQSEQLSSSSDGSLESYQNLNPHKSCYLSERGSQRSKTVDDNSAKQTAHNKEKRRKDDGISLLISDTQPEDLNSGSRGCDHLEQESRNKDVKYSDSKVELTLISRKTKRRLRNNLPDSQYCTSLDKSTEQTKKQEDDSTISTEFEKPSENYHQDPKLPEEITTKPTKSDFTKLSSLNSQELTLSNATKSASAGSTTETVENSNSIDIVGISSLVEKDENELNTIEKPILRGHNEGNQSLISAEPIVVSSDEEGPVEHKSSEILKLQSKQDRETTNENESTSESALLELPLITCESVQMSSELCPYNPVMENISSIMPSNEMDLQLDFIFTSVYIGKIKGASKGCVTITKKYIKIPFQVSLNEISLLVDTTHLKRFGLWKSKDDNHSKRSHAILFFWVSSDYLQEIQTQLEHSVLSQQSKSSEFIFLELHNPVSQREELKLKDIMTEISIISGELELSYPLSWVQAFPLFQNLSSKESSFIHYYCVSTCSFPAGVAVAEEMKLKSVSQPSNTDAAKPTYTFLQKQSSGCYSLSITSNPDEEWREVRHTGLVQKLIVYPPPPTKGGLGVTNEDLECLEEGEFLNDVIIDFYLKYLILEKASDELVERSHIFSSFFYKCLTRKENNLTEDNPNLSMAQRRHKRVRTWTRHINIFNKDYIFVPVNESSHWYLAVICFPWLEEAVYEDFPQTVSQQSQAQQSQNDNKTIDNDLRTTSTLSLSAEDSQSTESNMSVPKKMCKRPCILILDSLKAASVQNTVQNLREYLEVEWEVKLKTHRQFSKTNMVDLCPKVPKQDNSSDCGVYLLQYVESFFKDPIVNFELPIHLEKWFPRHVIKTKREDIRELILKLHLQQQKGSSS

[16] = molecular target: T6, Sentrin-specific protease 8 (Homo sapiens, UniProt Q96LD8); assay: inhibition of human SENP8 cleavage activity – biochemical, luminescence, SAR follow-up (AID 504501); format: functional
T6 sequence (Q96LD8 whole entry): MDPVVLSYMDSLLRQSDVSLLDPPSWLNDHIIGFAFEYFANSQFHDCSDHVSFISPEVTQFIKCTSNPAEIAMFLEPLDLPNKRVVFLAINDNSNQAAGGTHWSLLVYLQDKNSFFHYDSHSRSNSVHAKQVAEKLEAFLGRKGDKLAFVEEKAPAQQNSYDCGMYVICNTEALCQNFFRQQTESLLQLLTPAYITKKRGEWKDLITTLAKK

[17] = molecular target: Ras and Rab interactor 1/Tyrosine-protein kinase ABL1 (Homo sapiens, UniProt P00519+Q13671); format: functional;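 note: biochemical TR-FRET dose-response test measuring inhibition of binding between Rin1 and Abl proteins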
Ras and Rab interactor 1/Tyrosine-protein kinase ABL1, sequence (P00519 whole entry): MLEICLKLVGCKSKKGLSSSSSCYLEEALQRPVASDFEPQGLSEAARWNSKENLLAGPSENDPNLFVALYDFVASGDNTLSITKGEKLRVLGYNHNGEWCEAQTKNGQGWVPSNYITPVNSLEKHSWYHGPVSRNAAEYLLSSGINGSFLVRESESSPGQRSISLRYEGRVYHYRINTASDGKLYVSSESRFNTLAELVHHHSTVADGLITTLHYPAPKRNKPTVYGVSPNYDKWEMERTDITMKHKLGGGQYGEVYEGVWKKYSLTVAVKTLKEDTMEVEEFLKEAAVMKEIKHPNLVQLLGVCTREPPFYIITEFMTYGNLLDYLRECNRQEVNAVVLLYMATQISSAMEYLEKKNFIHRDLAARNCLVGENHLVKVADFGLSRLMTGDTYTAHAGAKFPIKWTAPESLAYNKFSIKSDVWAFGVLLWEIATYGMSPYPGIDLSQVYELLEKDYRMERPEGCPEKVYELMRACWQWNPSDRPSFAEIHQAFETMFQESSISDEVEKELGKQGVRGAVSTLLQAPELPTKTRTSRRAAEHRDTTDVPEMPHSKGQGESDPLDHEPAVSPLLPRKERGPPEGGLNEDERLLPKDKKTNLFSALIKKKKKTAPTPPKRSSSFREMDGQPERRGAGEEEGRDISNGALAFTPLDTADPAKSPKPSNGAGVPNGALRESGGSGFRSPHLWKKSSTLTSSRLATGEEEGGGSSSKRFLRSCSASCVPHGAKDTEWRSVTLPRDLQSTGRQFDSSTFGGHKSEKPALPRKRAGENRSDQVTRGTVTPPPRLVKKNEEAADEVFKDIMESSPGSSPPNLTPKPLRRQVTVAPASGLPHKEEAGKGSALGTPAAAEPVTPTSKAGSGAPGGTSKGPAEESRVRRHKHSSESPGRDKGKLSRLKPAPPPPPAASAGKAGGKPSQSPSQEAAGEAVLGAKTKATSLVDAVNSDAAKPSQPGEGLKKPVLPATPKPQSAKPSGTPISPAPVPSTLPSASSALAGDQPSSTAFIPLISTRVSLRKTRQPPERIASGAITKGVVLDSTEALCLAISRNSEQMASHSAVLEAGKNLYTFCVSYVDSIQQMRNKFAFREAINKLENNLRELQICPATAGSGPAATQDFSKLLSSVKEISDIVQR
Ras and Rab interactor 1/Tyrosine-protein kinase ABL1, sequence (Q13671 whole entry): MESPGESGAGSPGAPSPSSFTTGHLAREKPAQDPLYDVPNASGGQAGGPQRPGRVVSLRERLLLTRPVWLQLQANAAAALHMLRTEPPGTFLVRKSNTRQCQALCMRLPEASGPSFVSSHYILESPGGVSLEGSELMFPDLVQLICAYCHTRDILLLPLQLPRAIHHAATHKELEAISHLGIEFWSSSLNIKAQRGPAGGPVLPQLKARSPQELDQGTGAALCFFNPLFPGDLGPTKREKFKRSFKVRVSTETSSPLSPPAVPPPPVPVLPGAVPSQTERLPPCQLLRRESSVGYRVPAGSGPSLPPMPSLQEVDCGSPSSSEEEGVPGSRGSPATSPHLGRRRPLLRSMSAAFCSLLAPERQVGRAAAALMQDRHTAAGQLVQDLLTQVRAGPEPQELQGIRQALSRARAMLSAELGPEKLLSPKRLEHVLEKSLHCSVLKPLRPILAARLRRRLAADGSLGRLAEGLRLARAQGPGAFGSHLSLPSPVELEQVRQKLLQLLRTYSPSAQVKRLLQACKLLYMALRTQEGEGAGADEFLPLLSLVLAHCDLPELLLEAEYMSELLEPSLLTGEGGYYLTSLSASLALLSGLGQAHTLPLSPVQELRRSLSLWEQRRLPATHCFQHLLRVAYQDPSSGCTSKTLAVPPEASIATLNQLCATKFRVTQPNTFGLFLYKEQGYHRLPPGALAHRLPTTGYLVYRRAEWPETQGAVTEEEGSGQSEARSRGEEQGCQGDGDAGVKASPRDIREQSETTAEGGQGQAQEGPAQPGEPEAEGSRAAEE

72 kDa type IV collagenase, sequence (P08253 whole entry): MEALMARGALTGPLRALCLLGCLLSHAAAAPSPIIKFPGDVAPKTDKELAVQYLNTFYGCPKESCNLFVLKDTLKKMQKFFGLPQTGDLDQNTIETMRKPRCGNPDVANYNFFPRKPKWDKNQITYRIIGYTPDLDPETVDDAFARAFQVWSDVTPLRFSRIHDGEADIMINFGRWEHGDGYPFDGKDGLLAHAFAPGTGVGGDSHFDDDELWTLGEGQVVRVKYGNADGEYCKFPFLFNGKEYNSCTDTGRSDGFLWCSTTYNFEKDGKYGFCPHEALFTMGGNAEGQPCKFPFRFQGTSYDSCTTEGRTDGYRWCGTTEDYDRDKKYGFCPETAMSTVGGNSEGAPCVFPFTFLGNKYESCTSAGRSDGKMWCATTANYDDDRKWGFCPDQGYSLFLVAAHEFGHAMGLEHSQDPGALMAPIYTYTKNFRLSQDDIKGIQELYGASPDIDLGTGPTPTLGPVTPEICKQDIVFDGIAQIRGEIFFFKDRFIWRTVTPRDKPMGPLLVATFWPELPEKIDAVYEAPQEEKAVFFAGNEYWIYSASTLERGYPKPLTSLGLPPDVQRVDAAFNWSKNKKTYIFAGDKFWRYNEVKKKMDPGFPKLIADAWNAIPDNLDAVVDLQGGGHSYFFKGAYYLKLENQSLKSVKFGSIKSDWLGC
T1 sequence (P11940 whole entry, the tested form may be a part): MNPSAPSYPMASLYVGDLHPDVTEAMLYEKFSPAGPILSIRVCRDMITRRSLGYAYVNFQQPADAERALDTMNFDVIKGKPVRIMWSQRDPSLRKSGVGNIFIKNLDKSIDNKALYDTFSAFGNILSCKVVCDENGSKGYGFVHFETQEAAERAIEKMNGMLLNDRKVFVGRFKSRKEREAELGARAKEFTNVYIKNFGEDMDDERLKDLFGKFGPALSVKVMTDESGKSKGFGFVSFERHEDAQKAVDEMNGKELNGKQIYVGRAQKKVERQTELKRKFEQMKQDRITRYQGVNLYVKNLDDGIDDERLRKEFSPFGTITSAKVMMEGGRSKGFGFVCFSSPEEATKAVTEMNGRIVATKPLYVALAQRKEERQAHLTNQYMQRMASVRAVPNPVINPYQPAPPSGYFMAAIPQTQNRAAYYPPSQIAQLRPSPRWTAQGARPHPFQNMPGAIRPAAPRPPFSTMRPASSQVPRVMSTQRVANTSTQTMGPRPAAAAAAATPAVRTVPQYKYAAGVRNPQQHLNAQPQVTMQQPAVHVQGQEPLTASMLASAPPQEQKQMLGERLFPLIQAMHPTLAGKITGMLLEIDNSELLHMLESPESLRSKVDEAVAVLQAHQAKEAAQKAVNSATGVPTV
26S proteasome non-ATPase regulatory subunit 14, sequence (O00487 whole entry): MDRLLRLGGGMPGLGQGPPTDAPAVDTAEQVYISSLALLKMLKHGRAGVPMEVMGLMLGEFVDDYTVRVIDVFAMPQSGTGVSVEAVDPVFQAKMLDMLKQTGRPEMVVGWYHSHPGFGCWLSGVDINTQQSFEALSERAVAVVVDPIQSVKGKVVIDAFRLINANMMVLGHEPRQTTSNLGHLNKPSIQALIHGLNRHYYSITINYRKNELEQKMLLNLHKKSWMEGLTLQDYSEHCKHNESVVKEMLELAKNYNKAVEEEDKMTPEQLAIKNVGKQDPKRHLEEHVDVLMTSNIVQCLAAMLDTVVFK
Dual specificity protein phosphatase 3, sequence (P51452 whole entry): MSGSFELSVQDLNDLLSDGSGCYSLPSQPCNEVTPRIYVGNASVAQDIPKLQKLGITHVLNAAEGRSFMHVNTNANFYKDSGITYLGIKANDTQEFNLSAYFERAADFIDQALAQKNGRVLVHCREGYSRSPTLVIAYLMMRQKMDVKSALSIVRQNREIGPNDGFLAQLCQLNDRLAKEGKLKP
Melanocortin receptor 4, sequence (P32245 whole entry): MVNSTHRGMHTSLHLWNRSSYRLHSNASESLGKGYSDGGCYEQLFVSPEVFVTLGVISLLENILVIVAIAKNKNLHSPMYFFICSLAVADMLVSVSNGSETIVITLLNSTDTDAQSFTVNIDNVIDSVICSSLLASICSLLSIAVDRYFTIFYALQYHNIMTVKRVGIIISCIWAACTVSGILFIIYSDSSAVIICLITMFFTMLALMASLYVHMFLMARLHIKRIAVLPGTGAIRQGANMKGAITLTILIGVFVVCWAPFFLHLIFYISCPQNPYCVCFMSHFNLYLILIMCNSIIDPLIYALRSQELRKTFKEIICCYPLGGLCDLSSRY
Tyrosine-protein phosphatase non-receptor type 5, sequence (P54829 whole entry): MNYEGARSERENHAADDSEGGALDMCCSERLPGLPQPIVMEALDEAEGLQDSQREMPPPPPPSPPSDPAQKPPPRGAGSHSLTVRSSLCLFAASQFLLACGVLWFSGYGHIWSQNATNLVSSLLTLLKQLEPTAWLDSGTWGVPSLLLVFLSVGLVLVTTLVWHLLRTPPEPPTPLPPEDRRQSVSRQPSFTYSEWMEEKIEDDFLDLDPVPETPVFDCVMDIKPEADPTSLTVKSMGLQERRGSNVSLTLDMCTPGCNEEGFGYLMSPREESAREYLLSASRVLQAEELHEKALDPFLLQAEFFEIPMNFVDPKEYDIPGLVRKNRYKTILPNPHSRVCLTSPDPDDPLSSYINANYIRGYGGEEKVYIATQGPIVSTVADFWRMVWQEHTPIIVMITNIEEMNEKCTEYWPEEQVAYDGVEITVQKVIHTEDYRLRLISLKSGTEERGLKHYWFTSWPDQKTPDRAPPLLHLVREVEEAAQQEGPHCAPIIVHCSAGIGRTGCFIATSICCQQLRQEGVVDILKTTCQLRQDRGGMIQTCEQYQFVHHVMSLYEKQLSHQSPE

SMILES: COc1ccc(CNCCc2ccc(Cl)cc2)cc1OCc1ccccc1
AC50 [3]: > 70 µM (inactive) | EC50 (Melanocortin receptor 4): > 9.91 µM (active) | AC50 [4]: 11.9 µM (active) | EC50 [5]: > 60 µM (not active) | EC50 [6]: < 0.1 µM (active) | AC50 [7]: 5.59 µM (active) | EC50 (cells): 0.114 µM (active)

SMILES: CCCCn1c2ccc(F)cc2c2nnc(SCCN3CCOCC3)nc21
IC50 [8]: > 66 µM (inactive) | IC50 [9]: > 66 µM (inactive)

SMILES: S=C(c1ccc(Br)cc1)N1CCN(Cc2ccccc2)CC1
IC50 [10]: 0.719 µM (active) | IC50 [11]: 22.7 µM (inactive) | IC50 [12]: 1.81 µM (active)

SMILES: Cc1ccc(NC(=O)CCc2nc(O)c3c4c(sc3n2)CCCC4)nc1
IC50 [1]: 23.1 µM (active) | IC50 [2]: > 100 µM (inactive) | IC50 (Prothrombin): 55 µM (active) | IC50 [13]: 5.1 µM (active)

SMILES: O=C(Nc1ccccc1N1CCN(C(=O)c2ccc(Cl)cc2)CC1)c1cccnc1
IC50 [17]: 16.4 µM (inactive)

More lines, main results first:

IC50 [1]: 50 µM (active) | IC50 [2]: > 100 µM (inactive) | IC50 (Prothrombin): 40 µM (active)
SMILES: Cc1nc(SCc2nc3cc(Br)ccc3[nH]2)c2oc3ccccc3c2n1

IC50 (Caspase-3): 14.2 µM (active) | IC50 [14]: 46.5 µM (active) | IC50 [15]: 11.6 µM (active)
SMILES: CC(=O)Nc1ccc2nc(-c3ccccc3)oc2c1
IC50 [16]: 49.9 µM (active)

IC50 (Caspase-3): > 99 µM (inactive) | IC50 [14]: > 99 µM (inactive) | IC50 [15]: > 99 µM (inactive)
SMILES: CC(C)(C)CC(=O)Nc1ccc(-c2nc3cc(Cl)ccc3o2)cc1
IC50 [16]: > 99 µM (inactive)

IC50 [17]: 15.5 µM (inactive)
SMILES: CC(=O)Nc1cc2c(nc1C)nc(C)n2Cc1ccc(Br)cc1
